Among the data in patent publication US11884687B2, “Boronated multifunctional targeting drug conjugates, their uses and methods for their preparation” (Hovione Scientia Limited, priority 2017, dated 2024) are IC50 and LD50 values, retold here.

For one data set, the system named is 4T1. In words: MTS cell viability assay (4T1). In kind it is cell-based. The settings on record: Mus musculus, 4T1 cells.
Data set [1] deals with MDA-MB-231 human breast cancer cells. In words: MTS cell viability assay (MDA-MB-231). In kind it is cell-based. The conditions noted are these: folate-receptor-positive MDA-MB-231 cells. In general terms: Tetrazolium dyes change colour on reduction, which living cells bring about.
For data set [2] the following is noted: in vivo; cited from earlier work.

One may read the IC50 as the point on the concentration scale where inhibition reaches its midpoint. Consider `CC1=[N+]2c3ccc(C(=O)NCCOCCOCCOCCN=[N+]=[N-])cc3O[B-]2([C@H](CC(C)C)NC(=O)[C@@H](Cc2ccccc2)NC(=O)c2cnccn2)Oc2ccc(OCCOCCOCCOCCN=[N+]=[N-])cc21` (stereo partly shown) [B-complex 9], for which the IC50 in the data set with 4T1 is 7250 nM; in data set [1] (Homo sapiens), above 100 nM.
As for `COCCOCCOCCOc1ccc2c(c1)C(C)=[N+]1c3ccc(C(=O)NCCn4nnc5c4CC[C@H]4[C@@H](CC5)[C@H]4COC(=O)NCCNC(=O)CCC(NC(=O)c4ccc(NCc5cnc6nc(N)[nH]c(=O)c6n5)cc4)C(=O)O)cc3O[B-]1([C@H](CC(C)C)NC(=O)[C@@H](Cc1ccccc1)NC(=O)c1cnccn1)O2` (stereo partly shown) [B-complex 8], in data set [1], it took 67.5 nM to reach half-maximal inhibition (IC50).
Regarding `COCCOCCOCCOc1ccc2c(c1)C(C)=[N+]1c3ccc(C(=O)NCCN=[N+]=[N-])cc3O[B-]1([C@H](CC(C)C)NC(=O)[C@@H](Cc1ccccc1)NC(=O)c1cnccn1)O2` (stereo partly shown) [B-complex 7], the IC50 was 670 nM with 4T1 and above 100 nM in data set [1] (Homo sapiens).
Broadly, the LD50 is the dose expected to kill half of the subjects tested. As for `[Cl-].[Na+]` [table salt], the 50% lethal dose (LD50) in data set [2] is reported as 3000 mg/kg.
With `CC1=[N+]2c3ccc(C(=O)NCCOCCOCCOCCn4nnc5c4CCC4C(CC5)[C@@H]4COC(=O)NCCNC(=O)CC[C@H](NC(=O)c4ccc(NCc5cnc6nc(N)[nH]c(=O)c6n5)cc4)C(=O)O)cc3O[B-]2([C@H](CC(C)C)NC(=O)[C@@H](Cc2ccccc2)NC(=O)c2cnccn2)Oc2ccc(OCCOCCOCCOCCn3nnc4c3CC[C@H]3[C@@H](CC4)[C@H]3COC(=O)NCCNC(=O)CC[C@H](NC(=O)c3ccc(NCc4cnc5nc(N)[nH]c(=O)c5n4)cc3)C(=O)O)cc21` (stereo partly shown) [B-complex 10], the IC50 in data set [1] was found to be 62 nM.
